# Assay results from PMC8205227 (ACS Infectious Diseases, 2021).
# “And” between values parts separate entries of the source, which are not always exact repeats. Identical values can stand only once. “Also recorded” adds a separate entry of the source. Like-named read-outs stand apart in the source and are kept apart here.
# Assays:
# coaBC Tet-OFF hypomorph = experiment: microbe, parasite or virus in culture; assay type: cell-based, Mycobacterium tuberculosis; conditions: for Effect of ATc-mediated coaBC silencing on susceptibility of the coaBC hypomorph (hypersensitization): increasing ATc, inhibitor up to 125 μM; for MIC: read-out: MIC in the presence of PantS
# Mtb CoaB = Mtb CoaB (Mycobacterium tuberculosis, UniProt P9WNZ1); experiment: BIOMOL Green end-point pyrophosphate quantification assay (high-throughput screen); assay type: biochemical
# Mtb H37RvMA [1] = experiment: microbe, parasite or virus in culture; assay type: cell-based, Mycobacterium tuberculosis
# [2] = assay type: in vitro ADME, mouse; conditions: microsomes
# From the text: (§1) Compounds were profiled for HepG2 cytotoxicity, mouse liver microsomal clearance, and aqueous solubility, as previously described.[66]
# physchem [3] = assay type: physicochemical; conditions: kinetic from dmso stock
# From the text: as §1
# physchem [4] = assay type: physicochemical
# From the text: Table 1 SAR and In Vitro Profiling of Modifications to Compound 1a ^a | column: CHI LogD
# HepG2 cells = experiment: HepG2 cytotoxicity; assay type: cell-based; conditions: Homo sapiens
# From the text: as §1
# M. tuberculosis CoaBC = M. tuberculosis CoaBC (Mycobacterium tuberculosis, UniProt P9WNZ1); assay type: binding
# Mtb H37RvMA [5] = test system: Mtb H37RvMA; set-up: method as in PMID 33420031; conditions: cited from earlier work
# CoaB = test system: CoaB; set-up: method as in PMID 33420031; conditions: allosteric CoaB inhibitor; cited from earlier work
# wild-type Mtb H37RvMA = experiment: LC-MS metabolomic profiling of Mtb after compound exposure; assay type: cell-based, Mycobacterium tuberculosis; conditions: 5 μM or 50 μM, 24 h
# human CoaB = human CoaB (Homo sapiens, UniProt Q9HAB8); experiment: EnzChek coupled enzyme pyrophosphate assay, human CoaB; assay type: biochemical; conditions: 1 μM human CoaB; read-out: IC50 against human CoaB (EnzChek assay)
# Mtb CoaBC [6] = target: T1, Mtb CoaBC (Mycobacterium tuberculosis, UniProt P9WNZ1)
# Mtb CoaBC [7] = target: T1, Mtb CoaBC; experiment: biochemical
# Mtb CoaBC [8] = target: T1, Mtb CoaBC; experiment: CMP quantification assay for L-cysteine kinetics and competition; assay type: biochemical
# [9] = test system: coupled reporter enzymes (inorganic pyrophosphatase, purine nucleoside phosphorylase); experiment: Inhibition of the coupled reporter enzymes of the EnzChek assay; assay type: biochemical; conditions: at 100 μM
# pyrophosphatase = experiment: Counter-screen for false positives (pyrophosphatase inactivation); assay type: biochemical
# Method: Counter-screens carried out to exclude false positive compounds were performed in 50 μL reactions containing 0.5 U/mL pyrophosphatase and 2 μM pyrophosphate in 100 mM Tris-HCl, pH 7.6, buffer containing 1 mM MgCl2 and 1 mM TCEP for 2 h at room temperature in 384-well microplates (Greiner Bio-One). Control reactions were performed in the absence of the pyrophosphatase. The reactions were terminated by addition of 50 μL BIOMOL Green (Enzo Life Sciences), and product formation was measured by absorbance (650 nm) using a PHERAstar microplate reader (BMG Labtech) following incubation for 20 min. Liquid dispensing was performed using a Thermo Scientific Matrix Wellmate, and data were processed and analyzed using ActivityBase (IDBS).
# Mtb CoaE = test system: Mtb CoaE; set-up: method as in PMID 21731728; conditions: 100 μM CTP; cited from earlier work
# panC Tet-OFF hypomorph = assay type: cell-based, Mycobacterium tuberculosis; conditions: pantothenate 25 µg/mL
# coaBC hypomorph = assay type: cell-based, Mycobacterium tuberculosis; conditions: ATc 200 ng/mL; pantothenate 25 µg/mL
# [10] = test system: Nc1ccn([C@@H]2O[C@H](COP(=O)(O)OP(=O)(O)OP(=O)(O)O)[C@@H](O)[C@H]2O)c(=O)n1; experiment: purified protein, by the assay type; conditions: other: other substrates fixed (125 μM CTP or PPA, 500 μM L-cysteine); pH 7.5
# [11] = test system: CC(C)(COP(=O)(O)O)[C@@H](O)C(=O)NCCC(=O)O; experiment: purified protein, by the assay type; conditions: other: other substrates fixed (125 μM CTP or PPA, 500 μM L-cysteine); pH 7.5
# [12] = BIOMOL Green pyrophosphate quantification assay
# [13] = Mycobacterium tuberculosis, H37RV, read-out: Mtb H37Rv MIC
# T1 sequence (P9WNZ1 whole entry): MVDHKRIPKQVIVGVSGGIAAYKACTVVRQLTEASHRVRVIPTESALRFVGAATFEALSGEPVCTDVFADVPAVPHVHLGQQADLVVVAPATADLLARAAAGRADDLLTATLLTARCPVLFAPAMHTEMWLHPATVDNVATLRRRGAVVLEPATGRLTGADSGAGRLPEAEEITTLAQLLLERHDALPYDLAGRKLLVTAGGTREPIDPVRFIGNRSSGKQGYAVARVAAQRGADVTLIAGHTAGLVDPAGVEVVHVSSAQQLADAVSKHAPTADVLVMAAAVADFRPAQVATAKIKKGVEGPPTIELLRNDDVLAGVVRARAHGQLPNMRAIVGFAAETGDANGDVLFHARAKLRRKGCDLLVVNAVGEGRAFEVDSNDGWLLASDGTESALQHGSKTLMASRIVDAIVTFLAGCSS
# Sequence of Mtb CoaB (P9WNZ1 whole entry): as above
# Sequence of M. tuberculosis CoaBC (P9WNZ1 whole entry): as above
# Sequence of human CoaB (Q9HAB8 whole entry): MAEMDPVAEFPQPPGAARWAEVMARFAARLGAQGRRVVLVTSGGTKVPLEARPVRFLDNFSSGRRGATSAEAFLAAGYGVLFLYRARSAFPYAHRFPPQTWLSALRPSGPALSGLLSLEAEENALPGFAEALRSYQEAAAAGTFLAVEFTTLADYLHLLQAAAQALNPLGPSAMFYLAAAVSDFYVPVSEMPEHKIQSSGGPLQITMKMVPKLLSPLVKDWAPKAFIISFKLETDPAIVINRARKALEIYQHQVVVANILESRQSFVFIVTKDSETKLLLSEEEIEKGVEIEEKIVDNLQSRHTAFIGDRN
compound,measurement,setting,value
"Cc1nn(-c2ccc(Cl)cc2)c(O)c1Sc1ccc(Cl)cc1 [Compound 1g, 2-(4-Chlorophenyl)-4-(4-chlorophenyl)sulfanyl-5-methyl-pyrazol-3-ol]",Effect of ATc-mediated coaBC silencing on susceptibility of the coaBC hypomorph (hypersensitization),coaBC Tet-OFF hypomorph,lack of hypersensitization
same,IC50,Mtb CoaB; [12],3.5 µM
same,MIC,Mtb H37RvMA [1]; [13],> 125 µM
same,Mouse Cli (intrinsic clearance),[2]; mouse,2.8 mL/min/g
same,solubility kinetic,physchem [3],110 µM
same,chromatographic logD,physchem [4],1.5
Cc1nn(-c2ccccc2)c(O)c1Sc1ccc(Cl)cc1Cl [Compound 1d],IC50,HepG2 cells,> 50 µM
same,IC50,Mtb CoaB; [12],3.2 µM
same,MIC,Mtb H37RvMA [1]; [13],> 125 µM
"Nc1ccn([C@@H]2O[C@H](COP(=O)(O)O)[C@@H](O)[C@H]2O)c(=O)n1 [CMP, cytidine-5′-monophosphate]","Thermal shift relative to CoaBC, Substrate",M. tuberculosis CoaBC,1.5 °C
"O=c1cc(-c2ccc(O)c(O)c2)oc2cc(O)c(O)cc12 [Compound 2b, reference compound]",MIC against Mtb (whole-cell activity),Mtb H37RvMA [5],> 250 µM
same,IC50,CoaB,0.08 µM
same,"Change in abundance of CoA thioesters propionyl-CoA, succinyl-CoA and malonyl-CoA relative to untreated bacilli",wild-type Mtb H37RvMA,notable depletion
same,Change in abundance of dephospho-CoA relative to untreated bacilli,wild-type Mtb H37RvMA,substantial accumulation
same,Change in the level of CoA,wild-type Mtb H37RvMA,no detectable change
"Cc1nn(-c2ccccc2)c(O)c1Sc1nc2cc(Cl)ccc2o1 [Compound 1f, 4-(5-Chloro-1,3-benzoxazol-2-yl)sulfanyl-5-methyl-2-phenyl-pyrazol-3-ol]",MIC,coaBC Tet-OFF hypomorph; Mycobacterium tuberculosis,77.2 µM
same,Fold decrease in MIC against coaBC hypomorph,coaBC Tet-OFF hypomorph; in the presence of 12.5 ng/mL ATc,~7 fold
same,Effect of ATc-mediated coaBC silencing on susceptibility of the coaBC hypomorph (hypersensitization),coaBC Tet-OFF hypomorph,dose-dependent hypersensitization
same,Fold reduction in susceptibility of coaBC hypomorph on PantS supplementation,coaBC Tet-OFF hypomorph; pantethine 2.5 mg/mL,4 fold
same,MIC,coaBC Tet-OFF hypomorph,> 125 µM
same,IC50,human CoaB,23.4 µM
same,Mode of inhibition with respect to CTP,Mtb CoaBC [6],noncompetitive inhibition
same,Mode of inhibition with respect to PPA,Mtb CoaBC [6],uncompetitively; also recorded: uncompetitive inhibition
same,"αKi, uncompetitive inhibition for PPA",Mtb CoaBC [6]; varying PPA,19.0 ± 0.6 µM
same,IC50,HepG2 cells,> 50 µM
same,IC50,Mtb CoaB; [12],15.6 µM
same,IC50,Mtb CoaBC [7],24.3 µM
same,Ki,Mtb CoaBC [7],10.1 ± 1.4 µM
same,Effect of ATc on activity against wild-type Mtb H37RvMA,Mtb H37RvMA [1],no effect
same,Rescue from compound toxicity by PantS supplementation,Mtb H37RvMA [1],rescued the wild-type strain
same,MIC,Mtb H37RvMA [1]; [13],25.9 µM
same,MIC,"Mtb H37RvMA [1]; Mycobacterium tuberculosis, H37RVMA, read-out: MIC in the presence of PantS",83.3 µM
same,MIC,Mtb H37RvMA [1]; read-out: MIC in the presence of PantS,> 125 µM
same,Mouse Cli (intrinsic clearance),[2]; mouse,2.3 mL/min/g
same,Mode of inhibition with respect to L-cysteine,Mtb CoaBC [8],noncompetitive inhibition
same,Ki,Mtb CoaBC [8]; varying L-cysteine,22.7 ± 7.6 µM
same,solubility kinetic,physchem [3],219 µM
same,"Change in abundance of CoA thioesters propionyl-CoA, succinyl-CoA and malonyl-CoA relative to untreated bacilli",wild-type Mtb H37RvMA,notable depletion
same,Change in abundance of dephospho-CoA relative to untreated bacilli,wild-type Mtb H37RvMA,substantial accumulation
same,Change in the level of CoA,wild-type Mtb H37RvMA,no detectable change
same,Activity on the coupled reporter enzymes,[9],inactive
same,ΔTm (difference in melting temperature in the presence and absence of 1f),M. tuberculosis CoaBC,0 °C and 1 °C
same,chromatographic logD,physchem [4],0.8
"CO[C@H]1/C=C/O[C@@]2(C)Oc3c(C)c(O)c4c(O)c(c(/C=N/N5CCN(C)CC5)c(O)c4c3C2=O)NC(=O)/C(C)=C\C=C\[C@H](C)[C@H](O)[C@@H](C)[C@@H](O)[C@@H](C)[C@H](OC(C)=O)[C@@H]1C [rifampicin, reference compound]",Effect of ATc-mediated coaBC silencing on susceptibility of the coaBC hypomorph (hypersensitization),coaBC Tet-OFF hypomorph,did not render the coaBC hypomorph more susceptible
"Cc1nn(-c2ccccc2)c(O)c1Sc1ccc(Cl)cc1 [Compound 1c, 4-(4-Chlorophenyl)sulfanyl-5-methyl-2-phenyl-pyrazol-3-ol]",IC50,HepG2 cells,> 50 µM
same,IC50,Mtb CoaB; [12],4 µM
same,MIC,Mtb H37RvMA [1]; [13],> 125 µM
same,Mouse Cli (intrinsic clearance),[2]; mouse,2.2 mL/min/g
same,solubility kinetic,physchem [3],110 µM
same,chromatographic logD,physchem [4],0.7
N[C@@H](CS)C(=O)O [L-cysteine],"Thermal shift relative to CoaBC, Substrate",M. tuberculosis CoaBC,0.5 °C
"Cc1nn(-c2ccccc2)c(O)c1Sc1ccccc1 [Compound 1a, 4-Phenylsulfanyl-5-methyl-2-phenyl-pyrazol-3-ol]",IC50,HepG2 cells,> 50 µM
same,IC50,Mtb CoaB; [12],9.9 µM
same,MIC,Mtb H37RvMA [1]; [13],> 125 µM
same,MIC,Mtb H37RvMA [1]; read-out: Mtb H37Rv MIC,>125 µM
same,Activity in counter-screen for pyrophosphatase inactivation,pyrophosphatase,inactivity
same,Mouse Cli (intrinsic clearance),[2]; mouse,<0.5 mL/min/g
same,solubility kinetic,physchem [3],219 µM
same,chromatographic logD,physchem [4],0.4
Cc1nn(-c2ccc(Cl)cn2)c(O)c1Sc1ccc(Cl)cc1 [Compound 1i],Effect of ATc-mediated coaBC silencing on susceptibility of the coaBC hypomorph (hypersensitization),coaBC Tet-OFF hypomorph,lack of hypersensitization
same,IC50,HepG2 cells,40 µM
same,IC50,Mtb CoaB; [12],> 50 µM
same,Mtb CoaB IC50,Mtb CoaB; [12],complete loss of inhibitory activity
same,MIC,Mtb H37RvMA [1]; [13],6.2 µM
same,Mouse Cli (intrinsic clearance),"[2]; CD1, mouse",<0.5 mL/min/g
same,solubility kinetic,physchem [3],79 µM
same,chromatographic logD,physchem [4],3.7
"Cc1ccc(Sc2c(C)nn(-c3ccccc3)c2O)cc1 [Compound 1b, 4-(4-Methylphenyl)sulfanyl-5-methyl-2-phenyl-pyrazol-3-ol]",IC50,HepG2 cells,> 50 µM
same,IC50,Mtb CoaB; [12],3.3 µM
same,MIC,Mtb H37RvMA [1]; [13],> 125 µM
same,Mouse Cli (intrinsic clearance),[2]; mouse,1.1 mL/min/g
same,solubility kinetic,physchem [3],156 µM
same,chromatographic logD,physchem [4],0.7
"NNC(=O)c1ccncc1 [isoniazid, reference compound]",Effect of ATc-mediated coaBC silencing on susceptibility of the coaBC hypomorph (hypersensitization),coaBC Tet-OFF hypomorph,did not render the coaBC hypomorph more susceptible
"Nc1ccn([C@@H]2O[C@H](COP(=O)(O)OP(=O)(O)OP(=O)(O)O)[C@@H](O)[C@H]2O)c(=O)n1 [CTP, cytidine-5′-triphosphate]",Decrease in CoaE activity,Mtb CoaE,greater than 60%
same,"Thermal shift relative to CoaBC, Substrate",M. tuberculosis CoaBC,5.5 °C
"CC(C)(CO)[C@@H](O)C(=O)NCCC(=O)O [Pan, pantothenate]",Rescue from growth inhibitory effects of PanC deficiency,panC Tet-OFF hypomorph,fully rescued
same,Rescue of growth of the coaBC hypomorph,coaBC hypomorph,unable to restore growth
"COc1ccc(Sc2c(C)nn(-c3ccccc3)c2O)cc1 [Compound 1e, 4-(4-Methoxyphenyl)sulfanyl-5-methyl-2-phenyl-pyrazol-3-ol]",IC50,HepG2 cells,> 50 µM
same,Fold increase in potency against Mtb CoaB relative to 1a,Mtb CoaB,4 fold
same,IC50,Mtb CoaB; [12],2.8 µM
same,MIC,Mtb H37RvMA [1]; [13],> 125 µM
"Cc1nn(-c2cccc(Cl)c2)c(O)c1Sc1ccc(Cl)cc1 [Compound 1h, 2-(3-Chlorophenyl)-4-(4-chlorophenyl)sulfanyl-5-methyl-pyrazol-3-ol]",Effect of ATc-mediated coaBC silencing on susceptibility of the coaBC hypomorph (hypersensitization),coaBC Tet-OFF hypomorph,lack of hypersensitization
same,IC50,Mtb CoaB; [12],2.3 µM
same,MIC,Mtb H37RvMA [1]; [13],> 125 µM
same,Mouse Cli (intrinsic clearance),[2]; mouse,2.6 mL/min/g
same,solubility kinetic,physchem [3],55 µM
same,chromatographic logD,physchem [4],1.5
Mtb CoaBC (Mycobacterium tuberculosis H37Rv),Km,[10],27.4 ± 2.6 µM
same,Km,[11],45.4 ± 5.3 µM
"CC(C)(COP(=O)(O)O)[C@@H](O)C(=O)NCCC(=O)O [PPA, 4′-phosphopantothenate]","Thermal shift relative to CoaBC, Substrate",M. tuberculosis CoaBC,3.5 °C
